Results on 24 molecules are retold here after US8129417B2, “Substituted octahydrocyclopenta[C]pyrrol-4-amines as calcium channel blockers” (Abbott Laboratories, priority 2008, dated 2012).

human Cav2.2, sequence (Q00975 whole entry): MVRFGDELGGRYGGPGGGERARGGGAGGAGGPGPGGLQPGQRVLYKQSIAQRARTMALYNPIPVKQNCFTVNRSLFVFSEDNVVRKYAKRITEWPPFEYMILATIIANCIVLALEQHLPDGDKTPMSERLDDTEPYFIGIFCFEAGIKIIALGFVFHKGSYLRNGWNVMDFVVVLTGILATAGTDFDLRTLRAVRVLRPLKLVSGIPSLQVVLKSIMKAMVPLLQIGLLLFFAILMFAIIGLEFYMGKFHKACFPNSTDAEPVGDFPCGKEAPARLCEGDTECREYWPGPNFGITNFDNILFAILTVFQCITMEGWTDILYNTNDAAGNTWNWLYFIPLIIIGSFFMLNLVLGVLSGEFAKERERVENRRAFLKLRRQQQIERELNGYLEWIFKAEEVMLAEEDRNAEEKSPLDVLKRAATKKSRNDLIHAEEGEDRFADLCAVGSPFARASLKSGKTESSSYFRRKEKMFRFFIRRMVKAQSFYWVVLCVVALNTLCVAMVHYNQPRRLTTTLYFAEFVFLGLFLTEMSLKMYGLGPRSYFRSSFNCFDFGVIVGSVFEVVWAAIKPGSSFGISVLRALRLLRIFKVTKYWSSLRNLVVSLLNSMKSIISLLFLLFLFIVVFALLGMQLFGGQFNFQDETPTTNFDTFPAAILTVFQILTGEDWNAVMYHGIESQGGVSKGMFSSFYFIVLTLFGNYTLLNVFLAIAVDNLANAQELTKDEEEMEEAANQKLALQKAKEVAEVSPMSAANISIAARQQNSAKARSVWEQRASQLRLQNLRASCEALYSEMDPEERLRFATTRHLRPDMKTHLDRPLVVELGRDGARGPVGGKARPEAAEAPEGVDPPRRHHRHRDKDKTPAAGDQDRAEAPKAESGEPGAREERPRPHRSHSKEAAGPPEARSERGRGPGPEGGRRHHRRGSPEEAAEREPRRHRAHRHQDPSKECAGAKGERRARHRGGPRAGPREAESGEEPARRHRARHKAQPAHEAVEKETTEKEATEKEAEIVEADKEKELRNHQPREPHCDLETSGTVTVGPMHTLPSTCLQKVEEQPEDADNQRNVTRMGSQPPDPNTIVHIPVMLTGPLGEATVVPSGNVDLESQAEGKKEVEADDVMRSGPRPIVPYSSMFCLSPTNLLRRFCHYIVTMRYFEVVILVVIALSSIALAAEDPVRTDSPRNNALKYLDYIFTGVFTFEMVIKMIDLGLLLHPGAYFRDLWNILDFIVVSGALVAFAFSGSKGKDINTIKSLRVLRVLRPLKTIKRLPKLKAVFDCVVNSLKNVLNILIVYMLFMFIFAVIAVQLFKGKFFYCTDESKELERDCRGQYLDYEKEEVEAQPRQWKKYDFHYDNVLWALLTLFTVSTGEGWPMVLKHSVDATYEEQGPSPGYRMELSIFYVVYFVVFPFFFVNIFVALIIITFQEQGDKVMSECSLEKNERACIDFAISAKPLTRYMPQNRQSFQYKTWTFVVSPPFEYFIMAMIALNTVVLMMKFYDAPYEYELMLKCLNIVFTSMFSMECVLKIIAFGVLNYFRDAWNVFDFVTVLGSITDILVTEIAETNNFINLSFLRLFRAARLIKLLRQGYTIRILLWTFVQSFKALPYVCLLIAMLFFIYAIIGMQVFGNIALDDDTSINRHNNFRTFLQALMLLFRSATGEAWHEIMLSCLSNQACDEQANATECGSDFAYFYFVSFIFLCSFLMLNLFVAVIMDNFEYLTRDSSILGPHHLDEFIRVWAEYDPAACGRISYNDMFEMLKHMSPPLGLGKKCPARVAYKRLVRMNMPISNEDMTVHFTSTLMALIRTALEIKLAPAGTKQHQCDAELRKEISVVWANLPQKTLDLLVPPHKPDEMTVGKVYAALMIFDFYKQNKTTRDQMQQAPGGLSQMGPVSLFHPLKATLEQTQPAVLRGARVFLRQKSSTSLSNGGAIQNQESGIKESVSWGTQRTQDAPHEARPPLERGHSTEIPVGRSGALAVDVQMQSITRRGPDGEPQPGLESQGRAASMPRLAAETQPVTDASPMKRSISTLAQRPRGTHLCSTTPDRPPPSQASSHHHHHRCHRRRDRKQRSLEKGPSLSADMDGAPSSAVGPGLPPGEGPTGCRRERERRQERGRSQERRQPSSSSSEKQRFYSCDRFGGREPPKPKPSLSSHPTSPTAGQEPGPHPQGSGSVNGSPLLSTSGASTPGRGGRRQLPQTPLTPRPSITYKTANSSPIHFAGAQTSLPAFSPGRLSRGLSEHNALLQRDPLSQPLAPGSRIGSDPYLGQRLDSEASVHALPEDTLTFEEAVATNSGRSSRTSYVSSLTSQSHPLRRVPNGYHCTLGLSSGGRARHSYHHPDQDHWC
human Cav2.2, sequence (P54289 25-946 partner limits assumed): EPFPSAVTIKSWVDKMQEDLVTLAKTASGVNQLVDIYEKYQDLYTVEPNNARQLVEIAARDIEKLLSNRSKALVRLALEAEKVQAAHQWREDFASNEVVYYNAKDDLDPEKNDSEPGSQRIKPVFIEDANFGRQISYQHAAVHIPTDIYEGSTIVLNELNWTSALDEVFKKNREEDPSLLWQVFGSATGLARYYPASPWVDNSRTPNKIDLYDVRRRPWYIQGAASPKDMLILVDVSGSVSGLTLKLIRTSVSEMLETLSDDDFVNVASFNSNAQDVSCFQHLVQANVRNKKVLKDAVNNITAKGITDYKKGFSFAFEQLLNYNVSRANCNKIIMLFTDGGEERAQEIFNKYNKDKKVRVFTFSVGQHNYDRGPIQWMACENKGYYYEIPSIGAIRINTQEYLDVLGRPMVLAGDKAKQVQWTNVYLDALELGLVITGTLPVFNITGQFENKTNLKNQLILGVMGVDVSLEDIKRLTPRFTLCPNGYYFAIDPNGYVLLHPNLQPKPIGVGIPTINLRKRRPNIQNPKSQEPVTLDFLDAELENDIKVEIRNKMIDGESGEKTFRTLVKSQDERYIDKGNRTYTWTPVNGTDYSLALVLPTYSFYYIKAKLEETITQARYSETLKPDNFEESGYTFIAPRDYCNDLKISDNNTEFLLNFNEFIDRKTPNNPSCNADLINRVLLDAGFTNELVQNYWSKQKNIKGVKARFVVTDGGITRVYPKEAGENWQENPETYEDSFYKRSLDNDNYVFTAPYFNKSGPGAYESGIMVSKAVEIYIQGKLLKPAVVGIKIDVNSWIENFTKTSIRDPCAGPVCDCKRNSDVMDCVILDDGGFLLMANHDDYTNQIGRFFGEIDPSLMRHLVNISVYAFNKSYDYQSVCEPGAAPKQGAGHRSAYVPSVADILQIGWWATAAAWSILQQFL
human Cav2.2, sequence (P54289 947-1103 partner limits assumed): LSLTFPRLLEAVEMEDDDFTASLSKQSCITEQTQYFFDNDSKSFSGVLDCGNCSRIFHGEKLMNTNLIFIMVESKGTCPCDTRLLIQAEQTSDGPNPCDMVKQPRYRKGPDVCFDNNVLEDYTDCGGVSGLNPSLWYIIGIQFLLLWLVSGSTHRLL
human Cav2.2, sequence (P54284 whole entry partner): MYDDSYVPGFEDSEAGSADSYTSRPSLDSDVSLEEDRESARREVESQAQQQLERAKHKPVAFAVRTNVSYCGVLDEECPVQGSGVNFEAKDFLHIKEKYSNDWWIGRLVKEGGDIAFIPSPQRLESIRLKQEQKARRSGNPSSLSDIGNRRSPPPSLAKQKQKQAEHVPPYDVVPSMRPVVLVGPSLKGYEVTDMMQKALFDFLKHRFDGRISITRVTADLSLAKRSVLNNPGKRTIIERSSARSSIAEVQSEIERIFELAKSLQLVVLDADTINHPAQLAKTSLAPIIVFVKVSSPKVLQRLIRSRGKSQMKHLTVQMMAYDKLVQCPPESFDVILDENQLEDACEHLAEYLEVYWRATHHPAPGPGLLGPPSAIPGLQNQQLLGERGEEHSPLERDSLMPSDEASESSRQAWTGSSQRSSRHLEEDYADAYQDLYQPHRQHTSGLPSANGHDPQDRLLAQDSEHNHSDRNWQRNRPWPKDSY

This experiment concerns the target human Cav2.2 (Homo sapiens, UniProt Q00975). Kind of experiment: Assessment of calcium channel activity using FLIPR (Ca2+ influx in IMR32 cells). It counts as cell-based. Conditions: 60 minute pre-incubation with compound, 2 μM nifedipine, depolarized with 80 mM KCl. Put shortly: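 IMR32 neuroblastoma cells seeded at 1-1.2×10^5 cells/well and grown 48 h at 37 °C before FLIPR Ca2+ influx read. Percent inhibition at each concentration vs no-inhibitor activity; IC50 by non-linear sigmoidal dose-response fit.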
Usually IC50 stands for the point on the concentration scale where inhibition reaches its midpoint. `CCC[C@@H](C(=O)N[C@H]1CC[C@@H]2CN(Cc3cccc(C(F)(F)F)c3)C[C@@H]21)N(C)C(=O)OC(C)(C)C` [Example 313, tert-butyl methyl((S)-1-oxo-1-((3aR,4S,6aS)-2-(3-(trifluoromethyl)benzyl)octahydrocyclopenta[c]pyrrol-4-ylamino)pentan-2-yl)carbamate]: the half-inhibitory concentration (IC50) turned out to be 2100 nM.

With `CCC[C@@H](C(=O)N[C@H]1CC[C@@H]2CN(Cc3ccc(C(F)(F)F)cc3)C[C@@H]21)N(C)C(=O)OC(C)(C)C` [Example 314, tert-butyl methyl((S)-1-oxo-1-((3aR,4S,6aS)-2-(4-(trifluoromethyl)benzyl)octahydrocyclopenta[c]pyrrol-4-ylamino)pentan-2-yl)carbamate], the concentration for half-maximal inhibition (IC50) worked out at 2150 nM.

As for `CCC[C@@H](C(=O)N[C@@H]1CC[C@H]2CN(Cc3ccc(C(F)(F)F)cc3)C[C@H]21)N(C)C(=O)OC(C)(C)C` [Example 317, tert-butyl methyl((S)-1-oxo-1-((3aS,4R,6aR)-2-(4-(trifluoromethyl)benzyl)octahydrocyclopenta[c]pyrrol-4-ylamino)pentan-2-yl)carbamate], the IC50 stood at 900 nM. As for `CC(C)C[C@@H](C(=O)N[C@@H]1CC[C@H]2CN(S(=O)(=O)c3cccc(C(F)(F)F)c3)C[C@H]21)N1CCOCC1` [Example 319, (2S)-4-methyl-2-morpholin-4-yl-N-((3aS,4R,6aR)-2-{[3-(trifluoromethyl)phenyl]sulfonyl}octahydrocyclopenta[c]pyrrol-4-yl)pentanamide], the figure is 1210 nM; as for `CC(C)C[C@@H](C(=O)N[C@@H]1CC[C@H]2CN(S(=O)(=O)c3cccc(C(F)(F)F)c3)C[C@H]21)N1CCCC1` [Example 320, (2S)-4-methyl-2-pyrrolidin-1-yl-N-((3aS,4R,6aR)-2-{[3-(trifluoromethyl)phenyl]sulfonyl}octahydrocyclopenta[c]pyrrol-4-yl)pentanamide], 700 nM; as for `CC(C)C[C@@H](C(=O)N[C@@H]1CC[C@H]2CN(S(=O)(=O)c3cccc(C(F)(F)F)c3)C[C@H]21)N1CCCCC1` [Example 321, (2S)-4-methyl-2-piperidin-1-yl-N-((3aS,4R,6aR)-2-{[3-(trifluoromethyl)phenyl]sulfonyl}octahydrocyclopenta[c]pyrrol-4-yl)pentanamide], 440 nM.

With `CC(C)C[C@@H](C(=O)N[C@H]1CC[C@@H]2CN(S(=O)(=O)c3cccc(C(F)(F)F)c3)C[C@@H]21)N(C)C(=O)OC(C)(C)C` [Example 322, tert-butyl methyl((S)-4-methyl-1-oxo-1-((3aR,4S,6aS)-2-(3-(trifluoromethyl)phenylsulfonyl)octahydrocyclopenta[c]pyrrol-4-ylamino)pentan-2-yl)carbamate], the half-maximal inhibitory concentration (IC50) was determined as 700 nM.

`CCN(C(=O)OC(C)(C)C)[C@@H](CC(C)C)C(=O)N[C@H]1CC[C@@H]2CN(S(=O)(=O)c3cccc(C(F)(F)F)c3)C[C@@H]21` [Example 323, tert-butyl ethyl((S)-4-methyl-1-oxo-1-((3aR,4S,6aS)-2-(3-(trifluoromethyl)phenylsulfonyl)octahydrocyclopenta[c]pyrrol-4-ylamino)pentan-2-yl)carbamate]: the half-maximal inhibitory concentration (IC50) was found to be 200 nM.

Turning to `CC(C)C[C@@H](C(=O)N[C@@H]1CC[C@H]2CN(S(=O)(=O)c3ccc(C(F)(F)F)cc3)C[C@H]21)N(C)C(=O)OC(C)(C)C` [Example 324, tert-butyl methyl((S)-4-methyl-1-oxo-1-((3aS,4R,6aR)-2-(4-(trifluoromethyl)phenylsulfonyl)octahydrocyclopenta[c]pyrrol-4-ylamino)pentan-2-yl)carbamate], the IC50 was 690 nM.

For the molecule `CC(C)C[C@@H](C(=O)N[C@@H]1CC[C@H]2CN(S(=O)(=O)c3cccc(C(F)(F)F)c3)C[C@H]21)N(C)C(=O)OC(C)(C)C` [Example 325, tert-butyl methyl((S)-4-methyl-1-oxo-1-((3aS,4R,6aR)-2-(3-(trifluoromethyl)phenylsulfonyl)octahydrocyclopenta[c]pyrrol-4-ylamino)pentan-2-yl)carbamate], the IC50 is 250 nM. As for `CC(C)C[C@@H](C(=O)N[C@@H]1CC[C@H]2CN(S(=O)(=O)c3ccc(F)cc3)C[C@H]21)N(C)C(=O)OC(C)(C)C` [Example 326, tert-butyl(S)-1-((3aS,4R,6aR)-2-(4-fluorophenylsulfonyl)octahydrocyclopenta[c]pyrrol-4-ylamino)-4-methyl-1-oxopentan-2-yl(methyl)carbamate], the figure is 1460 nM. As for `CC(C)C[C@@H](C(=O)N[C@@H]1CC[C@H]2CN(S(=O)(=O)c3ccc(F)c(C(F)(F)F)c3)C[C@H]21)N(C)C(=O)OC(C)(C)C` [Example 327, tert-butyl(S)-1-((3aS,4R,6aR)-2-(4-fluoro-3-(trifluoromethyl)phenylsulfonyl)octahydrocyclopenta[c]pyrrol-4-ylamino)-4-methyl-1-oxopentan-2-yl(methyl)carbamate], the figure is 1830 nM; as for `CC(C)C[C@@H](C(=O)N[C@@H]1CC[C@@H]2CN(S(=O)(=O)c3ccc(C(F)(F)F)cc3)C[C@@H]21)N(C)C(=O)OC(C)(C)C` [Example 329, tert-butyl methyl((S)-4-methyl-1-oxo-1-((3aR,4R,6aS)-2-(4-(trifluoromethyl)phenylsulfonyl)octahydrocyclopenta[c]pyrrol-4-ylamino)pentan-2-yl)carbamate], 2600 nM. As for `CCC[C@@H](C(=O)N[C@@H]1CC[C@H]2CN(S(=O)(=O)c3ccc(F)cc3)C[C@H]21)N(C)C(=O)OC(C)(C)C` [Example 330, tert-butyl(S)-1-((3aS,4R,6aR)-2-(4-fluorophenylsulfonyl)octahydrocyclopenta[c]pyrrol-4-ylamino)-1-oxopentan-2-yl(methyl)carbamate], the figure is 1110 nM; as for `CCC[C@@H](C(=O)N[C@@H]1CC[C@H]2CN(S(=O)(=O)c3ccc(C(F)(F)F)cc3)C[C@H]21)N(C)C(=O)OC(C)(C)C` [Example 331, tert-butyl methyl((S)-1-oxo-1-((3aS,4R,6aR)-2-(4-(trifluoromethyl)phenylsulfonyl)octahydrocyclopenta[c]pyrrol-4-ylamino)pentan-2-yl)carbamate], 750 nM; as for `CC[C@H](C)[C@@H](C(=O)N[C@H]1CC[C@@H]2CN(S(=O)(=O)c3cccc(C(F)(F)F)c3)C[C@@H]21)N(C)C(=O)OC(C)(C)C` [Example 332, tert-butyl methyl((2S,3S)-3-methyl-1-oxo-1-((3aR,4S,6aS)-2-(3-(trifluoromethyl)phenylsulfonyl)octahydrocyclopenta[c]pyrrol-4-ylamino)pentan-2-yl)carbamate], 480 nM. Turning to `CC[C@H](C)[C@@H](C(=O)N[C@H]1CC[C@@H]2CN(S(=O)(=O)c3ccc(C(F)(F)F)cc3)C[C@@H]21)N(C)C(=O)OC(C)(C)C` [Example 333, tert-butyl methyl((2S,3S)-3-methyl-1-oxo-1-((3aR,4S,6aS)-2-(4-(trifluoromethyl)phenylsulfonyl)octahydrocyclopenta[c]pyrrol-4-ylamino)pentan-2-yl)carbamate], the IC50 turned out to be 570 nM.

For the molecule `CC[C@H](C)[C@@H](C(=O)N[C@@H]1CC[C@H]2CN(S(=O)(=O)c3cccc(C(F)(F)F)c3)C[C@H]21)N(C)C(=O)OC(C)(C)C` [Example 334, tert-butyl methyl((2S,3S)-3-methyl-1-oxo-1-((3aS,4R,6aR)-2-(3-(trifluoromethyl)phenylsulfonyl)octahydrocyclopenta[c]pyrrol-4-ylamino)pentan-2-yl)carbamate], the IC50 worked out at 690 nM.

Consider `CC[C@H](C)[C@@H](C(=O)N[C@@H]1CC[C@H]2CN(S(=O)(=O)c3ccc(C(F)(F)F)cc3)C[C@H]21)N(C)C(=O)OC(C)(C)C` [Example 335, tert-butyl methyl((2S,3S)-3-methyl-1-oxo-1-((3aS,4R,6aR)-2-(4-(trifluoromethyl)phenylsulfonyl)octahydrocyclopenta[c]pyrrol-4-ylamino)pentan-2-yl)carbamate], for which the IC50 is 830 nM. As for `CN(C(=O)OC(C)(C)C)[C@@H](CC(C)(C)C)C(=O)N[C@H]1CC[C@@H]2CN(S(=O)(=O)c3cccc(C(F)(F)F)c3)C[C@@H]21` [Example 336, tert-butyl(S)-4,4-dimethyl-1-oxo-1-((3aR,4S,6aS)-2-(3-(trifluoromethyl)phenylsulfonyl)octahydrocyclopenta[c]pyrrol-4-ylamino)pentan-2-yl(methyl)carbamate], the figure is 480 nM; as for `CN(C(=O)OC(C)(C)C)[C@@H](CC(C)(C)C)C(=O)N[C@H]1CC[C@@H]2CN(S(=O)(=O)c3ccc(C(F)(F)F)cc3)C[C@@H]21` [Example 337, tert-butyl(S)-4,4-dimethyl-1-oxo-1-((3aR,4S,6aS)-2-(4-(trifluoromethyl)phenylsulfonyl)octahydrocyclopenta[c]pyrrol-4-ylamino)pentan-2-yl(methyl)carbamate], 780 nM. As for `CN(C(=O)OC(C)(C)C)[C@@H](CC(C)(C)C)C(=O)N[C@@H]1CC[C@H]2CN(S(=O)(=O)c3cccc(C(F)(F)F)c3)C[C@H]21` [Example 338, tert-butyl(S)-4,4-dimethyl-1-oxo-1-((3aS,4R,6aR)-2-(3-(trifluoromethyl)phenylsulfonyl)octahydrocyclopenta[c]pyrrol-4-ylamino)pentan-2-yl(methyl)carbamate], the figure is 230 nM; as for `CN(C(=O)OC(C)(C)C)[C@@H](CC(C)(C)C)C(=O)N[C@@H]1CC[C@H]2CN(S(=O)(=O)c3ccc(C(F)(F)F)cc3)C[C@H]21` [Example 339, tert-butyl(S)-4,4-dimethyl-1-oxo-1-((3aS,4R,6aR)-2-(4-(trifluoromethyl)phenylsulfonyl)octahydrocyclopenta[c]pyrrol-4-ylamino)pentan-2-yl(methyl)carbamate], 1110 nM.

In the case of `CC(C)[C@@H](C(=O)N[C@@H]1CC[C@H]2CN(S(=O)(=O)c3cccc(C(F)(F)F)c3)C[C@H]21)N(C)C(=O)OC(C)(C)C` [Example 340, tert-butyl methyl((S)-3-methyl-1-oxo-1-((3aS,4R,6aR)-2-(3-(trifluoromethyl)phenylsulfonyl)octahydrocyclopenta[c]pyrrol-4-ylamino)butan-2-yl)carbamate], the IC50 was determined as 1030 nM.
